Paper PMC6686156, “Discovery of Sustainable Drugs for Neglected Tropical Diseases: Cashew Nut Shell Liquid (CNSL)‐Based Hybrids Target Mitochondrial Function and ATP Production in Trypanosoma brucei” (Chemmedchem, 2019)
Like-named read-outs stand apart in the source and are kept apart here.

Legend:
HFF cells = assay: ATP assay on HFF cells; assay type: cell-based, human; details: 22 at 200 μM, oligomycin 2 μg/mL; 0, 4, 8 h
Protocol: ATP assay on T. b. brucei and HFF cells: Changes in cellular ATP levels due to the exposure of trypanosomes to the test compounds (0.5×EC50) were monitored using the Molecular Probes ATP Determination Kit (A22066, Invitrogen Detection Technologies), based on the luciferin–luciferase bioluminescent enzymatic reaction. Bloodstream trypomastigote cultures of T. brucei s427WT were incubated with and without test compound, and, at each predetermined incubation time, 10^7 cells of each sample were transferred into a microfuge tube and centrifuged at 2000×g for 10 min at 4 °C. The pellet was washed twice with 1 mL of 50 mM Tris⋅HCl (pH 7.4) containing 0.1 mM DTT, and then resuspended in 200 μL of the same buffer. […] ATP levels were quantified using the contents of the kit following the manufacturer's instructions; 90 μL of standard reaction solution was added to each well of a 96‐well plate and the background luminescence was recorded in a FLUOstar OPTIMA fluorimeter; 10 μL of each sample was then added to each well. The plate was incubated at 28 °C for 15 min and the luminescence was measured, including a standard curve with an ATP concentration ranging from 1 nM to 1 μM to allow the calculation of the ATP concentrations in each sample. The ATP content was measured at 0, 0.5, 1, 2, 4, 8 and 12 h of incubation with test sample. […]

[1] = tested on: T. b. brucei 427WT bloodstream trypomastigotes; assay: ATP assay on T. b. brucei (luciferin-luciferase); assay type: cell-based, Trypanosoma brucei brucei; details: oligomycin 2.0 μg/mL, positive control
Protocol: ATP assay on T. b. brucei and HFF cells: Changes in cellular ATP levels due to the exposure of trypanosomes to the test compounds (0.5×EC50) were monitored using the Molecular Probes ATP Determination Kit (A22066, Invitrogen Detection Technologies), based on the luciferin–luciferase bioluminescent enzymatic reaction. Bloodstream trypomastigote cultures of T. brucei s427WT were incubated with and without test compound, and, at each predetermined incubation time, 10^7 cells of each sample were transferred into a microfuge tube and centrifuged at 2000×g for 10 min at 4 °C. The pellet was washed twice with 1 mL of 50 mM Tris⋅HCl (pH 7.4) containing 0.1 mM DTT, and then resuspended in 200 μL of the same buffer. The cells were lysed by sonication on ice (twice for 10 s separated by 30 s), using a Soniprep 150 (MSE) at 8 μm amplitude. The samples were centrifuged at 10 000×g for 10 min at 4 °C and the supernatant was collected, instantly frozen in liquid nitrogen, and stored at −80 °C. Oligomycin (2.0 μg mL^−1) was used as positive control. ATP levels were quantified using the contents of the kit following the manufacturer's instructions; 90 μL of standard reaction solution was added to each well of a 96‐well plate and the background luminescence was recorded in a FLUOstar OPTIMA fluorimeter; 10 μL of each sample was then added to each well. The plate was incubated at 28 °C for 15 min and the luminescence was measured, including a standard curve with an ATP concentration ranging from 1 nM to 1 μM to allow the calculation of the ATP concentrations in each sample. The ATP content was measured at 0, 0.5, 1, 2, 4, 8 and 12 h of incubation with test sample.

[2] = tested on: T. b. brucei 427WT trypomastigotes; assay: Growth curve / time-to-kill determination; assay type: cell-based, Trypanosoma brucei brucei; details: 1× EC50; for time to sterilize the culture: 427WT seeded at 1×10^5 cells/mL
Protocol: To determine whether 18–22 inhibited growth or cell division rather than causing cell death of T. b. brucei, cell growth curves were performed by treating 427WT trypomastigotes with concentrations corresponding to 0.5×, 1×, and 2× the EC50 value, using untreated cells as a control. Incubation with test compounds at half the EC50 (Figure 3 A) caused mostly some delayed growth phenotype, with rates increasing after 10 or 20 h. […] At double the concentration (Figure 3 C), all the hybrids cleared the culture between the 4 h and 8 h time points, with the cell populations rapidly declining between 2 and 4 h.
Untreated parasites, used as control, were grown in parallel. The cells were counted by using hemocytometer cell counter (cell count/mL×10^4) at 0, 2, 4, 8, 12, 24, 28, 32, 36, 48 h of incubation. Each experiment was performed as two independent replicates, and each sample was counted at least twice.

[3] = tested on: T. b. brucei 427WT bloodstream trypomastigotes; assay: microbe, parasite or virus in culture; assay type: cell-based, Trypanosoma brucei brucei; details: for SI, selectivity index=EC50(HFF)/EC50(T. b. b. WT): HFF versus T. b. b. 427WT; for RF, resistance factor (+ 5 mM glycerol versus control): Table 2; for EC50: Trypanosoma brucei
Protocol: (§1) Organisms and culture media: Only bloodstream trypomastigotes of T. b. brucei were used throughout this study. […] Parasites were cultured in vented flasks at 37 °C and 5 % CO2 atmosphere and they were passaged every 3 days. Bloodstream forms of T. congolense savannah‐type strain IL3000 were cultured in basal MEM medium, supplemented by 10 % fresh goat serum, 14 μL of β‐mercaptoethanol, 800 μL of 200 mM glutamine solution, and 10 mL of penicillin/streptomycin solution per liter of medium (pH 7.3).48 T. congolense were cultured in six‐well plates at 34 °C and 5 % CO2.
(§2) In brief, the assays were performed in 96‐well plates with 2×10^5 cells per well for T. b. brucei or 5×10^5 cells per well for T. congolense, in their respective culture media. First, 200 μL of test compounds’ solutions (400 μM, in T. brucei or T. congolense medium as appropriate) was added to the first well of each 12‐well row, from which doubling dilutions were conducted over one row per test compound. […] Fluorescence was detected using a FLUOstar Optima (BMG Labtech, Durham, NC, USA) at wavelength of 540 nm (excitation), 590 nm (emission). EC50 values were calculated by nonlinear regression using an equation for a sigmoidal dose–response curve with variable slope using Prism 5.0 (GraphPad Software Inc., San Diego, CA, USA).

T. b. brucei B48 = assay: microbe, parasite or virus in culture; assay type: cell-based, Trypanosoma brucei brucei; details: for RF, resistance factor relative to WT (B48): B48 versus 427WT; for EC50: Trypanosoma brucei, read-out: EC50 T. b. b. B48
Protocol: as §1, §2

[4] = tested on: T. b. brucei aqp2/aqp3‐KO; assay: microbe, parasite or virus in culture; assay type: cell-based, Trypanosoma brucei brucei; details: for EC50: Trypanosoma brucei, read-out: EC50 T. b. b. aqp2/aq3‐KO; for RF, resistance factor relative to WT (aqp2/aqp3-KO): aqp2/aqp3-KO versus 427WT
Protocol: as §1, §2

T. brucei GAPDH = T. brucei GAPDH (Trypanosoma brucei brucei, UniProt P22512); assay: Inhibition of T. brucei GAPDH; assay type: biochemical; details: fixed concentration of 10 μM; data not shown; read-out: decrease of GAPDH activity
T. brucei GAPDH, sequence (P22512 whole entry): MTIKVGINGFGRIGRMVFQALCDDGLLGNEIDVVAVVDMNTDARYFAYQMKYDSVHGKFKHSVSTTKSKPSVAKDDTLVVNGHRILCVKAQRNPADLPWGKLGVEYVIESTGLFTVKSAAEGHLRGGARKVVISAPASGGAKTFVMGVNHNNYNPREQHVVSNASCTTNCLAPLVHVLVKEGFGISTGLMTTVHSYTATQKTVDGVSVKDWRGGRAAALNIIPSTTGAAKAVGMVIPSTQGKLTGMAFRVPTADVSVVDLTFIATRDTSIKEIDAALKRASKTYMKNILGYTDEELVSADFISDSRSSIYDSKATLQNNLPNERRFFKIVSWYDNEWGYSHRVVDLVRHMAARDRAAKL
Description: […]. […] Limitations of solubility prevented us from testing the series at higher concentrations. However, it must be noted that we cannot exclude the possibility of a low‐affinity inhibition of GAPDH contributing to the trypanocidal effect, as compounds may accumulate to relatively high concentrations within the parasite.

[5] = Cytotoxicity assay on human foreskin fibroblast (HFF), resazurin; assay type: cell-based; details: human foreskin fibroblast (HFF) cells, tested up to 200 μM, read-out: HFF cytotoxic activity (EC50)
Protocol: Cytotoxicity assay on human foreskin fibroblast (HFF): Toxicity of test compounds to mammalian cells was carried out using the resazurin assay previously described31 with slight modifications as follows. HFF cells were grown in a culture medium containing 500 mL of Dulbecco's modified Eagle's medium (DMEM; Sigma), 50 mL newborn calf serum (NBCS; Gibco), 5 mL penicillin/streptomycin (Gibco), and 5 mL of L‐Glutamax ([…], Gibco), at 37 °C and 5 % CO2 in vented flasks and passaged at 80–85 % of confluence. For the cytotoxicity assay, cells were suspended at 3×10^5 cells mL^−1 and 100 μL aliquots were added to each well of a 96‐well plate. The plate was incubated at 37 °C and 5 % CO2 for 24 h to allow cell adhesion. Serial test compounds dilution was performed in a different 96‐well plate and 100 μL of each dilution was transferred to each well containing cells, resulting in exposure of cells to 200–0.2 μM of test compound. Phenylarsine oxide (Sigma–Aldrich) was used as positive control and drug‐free incubation as negative control. The plates were incubated at 37 °C and 5 % CO2 for an additional 30 h, at which point 10 μL of resazurin solution ([…] in PBS) was added, followed by a final incubation for 24 h. The plates were read and the data analyzed as described above for the trypanosome assay.

T. congolense IL3000 WT = assay: In vitro drug susceptibility assay (resazurin), T. congolense; assay type: cell-based; details: bloodstream forms, read-out: EC50 T. c. IL3000 WT
Protocol: as §1, §2

L6 mammalian cells = tested on: L6 mammalian cells; design: method as in earlier work; details: versus T. b. rhodesiense STIB 900; ref 14a; cited from earlier work
[6] = tested on: T. b. rhodesiense (STIB 900 strain); design: method as in earlier work; details: different resazurin protocol, ref 14a, read-out: IC50 (called EC50) against T. b. rhodesiense; cited from earlier work
T. b. brucei ISMR1 = assay: In vitro drug susceptibility assay (resazurin), dyskinetoplastic ISMR1 strain; assay type: cell-based, Trypanosoma brucei brucei; details: isometamidium-resistant line
Protocol: as §1, §2

[7] = 72 h, bloodstream trypomastigotes, resazurin, 48 h + 24 h, n=4, read-out: EC50 T. b. b. 427WT
[8] = Table 2, 5 mM glycerol in medium, average±SEM of three, read-out: EC50 s427WT + 5 mM glycerol
[9] = Table 2, no glycerol, average±SEM of three, read-out: EC50 Control s427WT

Compound | effect on cellular ATP levels of HFF cells (HFF cells) | effect on ATP levels relative to 20 and 22 [1] | time to sterilize the culture [2] | SI, selectivity index=EC50(HFF)/EC50(T. b. b. WT) [3] | RF, resistance factor (+ 5 mM glycerol versus control) [3] | EC50 [3, 7] | EC50 [3, 8] | EC50 [3, 9] | RF, resistance factor relative to WT (B48) (T. b. brucei B48) | EC50 (T. b. brucei B48) | EC50 [4] | RF, resistance factor relative to WT (aqp2/aqp3-KO) [4] | inhibition at 10 µM (T. brucei GAPDH) | EC50 at 54 h [5] | EC50 (T. congolense IL3000 WT) | effect on cell growth ([2]; over 48 h) | selectivity index (SI) with respect to L6 mammalian cells (L6 mammalian cells) | IC50 [6] | EC50 in ISMR1 relative to 427WT tested in parallel (T. b. brucei ISMR1) | EC50 (T. congolense IL3000 WT; Trypanosoma congolense)
CC[C@H]1/C=C/C=C/C[C@@H](C)[C@H](O)[C@@](C)(O)C(=O)[C@@H](C)[C@H](O)[C@@H](C)C(=O)[C@@H](C)[C@H](O)[C@@H](C)/C=C/C(=O)O[C@@H]2[C@H](C)[C@H](CC1)O[C@]1(CC[C@H](C)[C@H](C[C@@H](C)O)O1)[C@H]2C [oligomycin, reference compound] | strong effect even at 4 h | depressed the ATP levels even further |  |  |  |  |  |  |  |  |  |  |  |  |  |  |  |  |  | 
COc1cccc2c1C(=O)C(Oc1cccc(CCCCCCCCO)c1)=CC2=O [Compound 19, 2‐(3‐(8‐Hydroxyoctyl)phenoxy)‐8‐methoxynaphthalene‐1,4‐dione] |  |  | 8 h | >13.3 | 0.97 | 15 ± 1.3 µM | 16.3 ± 0.4 µM | 16.8 ± 0.06 µM | 0.98 | 14.6 ± 1.7 µM | 17.7 ± 1.5 µM | 1.2 | < 15% | > 200 µM |  |  |  |  |  | 
N=C(N)c1ccc(N=NNc2ccc(C(=N)N)cc2)cc1 [DA, Diminazene aceturate, reference compound] |  |  |  |  |  |  |  |  |  |  |  |  |  |  | 0.17 ± 0.0003 µM |  |  |  |  | 
O=C1C=C(Oc2cccc(CCCCCCCCO)c2)C(=O)c2c(O)cccc21 [Compound 21, 8‐Hydroxy‐2‐(3‐(8‐hydroxyoctyl)phenoxy)naphthalene‐1,4‐dione] |  |  |  | >5 |  | 40.5 ± 4.9 µM |  |  | 0.91 | 36.9 ± 5.3 µM | 46.7 ± 7.7 µM | 1.2 | < 15% | > 200 µM |  | decreased the growth rate substantially, with a nearly trypanostatic effect over the first 12 h |  |  |  | 
O=C1C=C(Oc2cccc(CCCCCCCCO)c2)C(=O)c2ccccc21 [Compound 18, 2‐(3‐(8‐Hydroxyoctyl)phenoxy)naphthalene‐1,4‐dione] |  |  | 2 h | >21.98 | 1.04 | 9.1 ± 1.4 µM | 31.2 ± 0.6 µM | 30 ± 0.08 µM | 0.95 | 8.6 ± 2.4 µM | 10.1 ± 2.2 µM | 1.1 | < 15% | > 200 µM |  |  |  |  |  | 
O=C1C=C(Oc2ccccc2)C(=O)c2ccccc21 [Compound 4, 2‐phenoxynaphthalene‐1,4‐dione, reference compound] |  |  |  |  |  | 48.7 ± 0.8 µM |  |  | 1.3 | 63 ± 0.4 µM | 62.4 ± 0.8 µM | 1.3 |  |  |  |  | 74 | 0.08 µM | did not show a significant increase in the EC50 values | 108 ± 2 µM
